Measurements taken from patent US20060062739A1 (priority 2004, published 2006).

Columns and labels:
[1] = tested on: subjects with severe asthma treated with oral corticosteroids; experiment: Lidocaine for reducing concurrent corticosteroids in steroid dependent severe asthma (Example 7); type: in vivo, human; settings: interim, all patients past visit 7
[2] = tested on: mild to moderate asthma patients; settings: human, in vivo

CCN(CC)CC(=O)Nc1c(C)cccc1C [lidocaine, acetamide 2-(diethylamino)-N-(2,6-dimethylphenyl)]
relation of reported adverse events to treatment [1]: None of the reported adverse events were thought to be related to the lidocaine treatment | bronchospasm (decrease in FEV1 >20% 30 min after aerosol administration) [2]: no reports of bronchospasm | loss of gag reflex [2]: No loss of gag reflex was reported | tolerability and safety overall [2]: no significant adverse events related to study drug | tracheal aspiration of food or liquid [2]: No case of tracheal aspiration of food or liquid was reported
